Assays:
[1] = tested on: BCMA CAR T cells with or without the CACCR
Experimental: We tested in an in vitro cell killing assay the effect of 150 nM dasatinib on the activities of the BCMA CAR T cells with or without the CACCR.

[2] = tested on: BCMA CAR T cells with or without the CACCR; assay: Rituximab NK cell-mediated antibody-dependent cellular cytotoxicity assay; type: cell-based; conditions: both types of BCMA CAR T cells
From the text: (§1) To minimize any potential safety concerns in clinical development, the BCMA CAR construct was designed to incorporate two rituximab mimotopes, which would sensitize the BCMA CAR T cells to rituximab-mediated depletion. We next tested the effects of rituximab on the BCMA CAR T cells with or without the CACCR.

[3] = tested on: BCMA CAR T cells, with or without the CACCR; assay: Rituximab-mediated CAR T cell depletion in vivo (MM.1S-Luc-GFP-bearing mice); set-up: species or system NSG mice
Experimental: Next, we tested the effect of rituximab on decreasing BCMA CAR T cells, with or without the CACCR, in vivo. […] Rituximab (10 mg/kg) or PBS vehicle control was dosed intraperitoneally starting on the day of CAR T cell dosing and then daily for 4 additional days (n=9 or 10 per group).

[4] = tested on: BCMA CAR T cells with or without the CACCR; assay: Rituximab complement-dependent cytotoxicity assay; type: cell-based; conditions: both types of BCMA CAR T cells
From the text: as §1

Compound: Cc1nc(Nc2ncc(C(=O)Nc3c(C)cccc3Cl)s2)cc(N2CCN(CCO)CC2)n1 [dasatinib]
- cytotoxicity of BCMA CAR T cells [1]: abolished the cytotoxicity

Compound: rituximab
- viable CAR T cells [2]: significantly decreased viable CAR T cells in a dose-responsive manner
- tumor burden following rituximab-mediated CAR T cell depletion ([3]; rituximab 10 mg/kg i.p.): compromised anti-tumor efficacy
- CAR T cell counts in peripheral blood ([3]; rituximab 10 mg/kg i.p. daily for 5 days, 7 days post-CAR T cell dosing): efficient and complete elimination of both CAR T cells
- viable CAR T cells [4]: significantly decreased viable CAR T cells in a dose-responsive manner
